In patent publication US20140024663A1, “ATB(0,+) AMINO ACID TRANSPORTER AS A DRUG TARGET FOR TREATMENT OF ESTROGEN RECEPTOR-POSITIVE BREAST CANCER” (GEORGIA HEALTH SCIENCES UNIVERSITY RESEARCH INSTITUTE, INC., priority 2012, published 2014):

Experiments:
Format in all cases: cell-based, human
MCF10A cells [1] = test: Analysis of autophagy (LC3 localization); settings: α-MT 2.5 mM, 48 h
Description: FIGS. 6A to 6C. Effects of SLC6A14 blockade with α-MT in breast cancer cells. In FIG. 6A, MCF10A (a non-malignant mammary epithelial cell line), MCF7 (an ER-positive breast cancer cell line), and MB231 (an ER-negative breast cancer cell line) cells were treated with or without 2.5 mM α-MT for 24, 48, or 72 h and then used for analysis of asparagine synthetase (ASNS) and CHOP mRNA levels. In FIG. 6B, MCF7, MB231 and MCF10A cells were treated with or without 2.5 mM α-MT for 48 h and then used for immunocytochemical analysis of the constitutively expressed LC-3. In FIG. 6C, MCF7 cells were treated with (“b” and “c”) or without (“a”) α-MT (2.5 mM) for 48 h and then used for electron microscopy. […]
Analysis of autophagy. Autophagy was analyzed as described previously (Periyasamy-Thandavan et al., 2010, Autophagy; 6:19-35; and Samaddar et al., 2008, Mol Cancer Ther; 7:2977-2987) by monitoring the localization pattern of constitutively expressed LC3 as well as that of ectopically expressed GFP-LC3. […] At the end of the treatment, cells were fixed with 4% paraformaldehyde and examined by fluorescence microscopy to count the number of cells with punctate GFP-LC3. Autophagosomal proteolysis was quantified as described previously (Periyasamy-Thandavan et al., 2010, Autophagy; 6:19-35). […]

mTOR in MCF7 cells = test: mTOR activity by western blot (phosphorylation of S6 and S6 kinase); settings: MCF7, α-MT 2.5 mM, 24, 48 or 72 h
Description: (§1) FIGS. 9A to 9D. Influence of α-MT on mTOR activity In FIG. 9A, MCF7 and MB231 cells were treated without or with α-MT (2.5 mM) for 24 h, 48 h, or 72 h, and then the cell lysates were used for western blot. Influence of α-MT with or without 3-MA on cell death. In FIG. 9B, MCF7, MB231, and MCF10A cells were treated for 48 h without or with α-MT (2.5 mM), 3-MA (10 mM), or α-MT (2.5 mM) plus 3-MA (10 mM), and then analyzed for cell death by propidium iodide (PI) staining and FACS-based cell cycle analysis. In FIG. 9C, MCF7 cells were treated for 48 h without or with α-MT (2.5 mM), 3-MA (10 mM), or α-MT (2.5 mM) plus 3-MA (10 mM), and then analyzed for apoptotic cell death by annexin V labeling. In FIG. 9D, MCF7 and MB231 cells were treated without or with 2.5 mM α-MT for 24 h, 48 h, or 72 h. Cell lysates were then used for western blot analysis of lamin A degradation product using an antibody that recognizes specifically the proteolytic cleavage product. β-Actin was used as an internal control.

[2] = system: mTOR in SLC6A14-negative cells (MB231); test: as above; settings: α-MT 2.5 mM, 24, 48 or 72 h
Description: as §1

ZR75.1 cells = test: QCM cell invasion assay; settings: ZR75.1, α-MT 2.5 mM, p>0.05
Description: Migration and invasion assays. The influence of α-MT on cell migration and invasion was determined with ZR75.1 cells. The migration of these cells toward fetal bovine serum was measured using the QCM™ cell migration assay kit (Millipore) according to manufacturer's instructions. Serum-starved ZR75.1 cells were allowed to migrate for 48 h in the presence/absence of α-MT (2.5 mM). After removing the cells on the top of the membrane filter, the inserts were stained with 0.1% crystal violet, washed and dried. The crystal violet dye retained on the filters, representing the cells that migrated to the underside of the membrane filter, was extracted with acetic acid. The absorbance of the extract was measured at 570 nm. Cell invasion assay was performed similarly using the QCM™ cell invasion assay kit (Millipore). The inserts used in this assay were coated with ECMATRIX™, representing extracellular matrix.

MB231 cells = test: ASNS and CHOP mRNA by RT-PCR as readout for amino acid deprivation; settings: SLC6A14-negative MB231, α-MT 2.5 mM, 24, 48 or 72 h
Description: (§2) FIGS. 6A to 6C. Effects of SLC6A14 blockade with α-MT in breast cancer cells. In FIG. 6A, MCF10A (a non-malignant mammary epithelial cell line), MCF7 (an ER-positive breast cancer cell line), and MB231 (an ER-negative breast cancer cell line) cells were treated with or without 2.5 mM α-MT for 24, 48, or 72 h and then used for analysis of asparagine synthetase (ASNS) and CHOP mRNA levels. In FIG. 6B, MCF7, MB231 and MCF10A cells were treated with or without 2.5 mM α-MT for 48 h and then used for immunocytochemical analysis of the constitutively expressed LC-3. In FIG. 6C, MCF7 cells were treated with (“b” and “c”) or without (“a”) α-MT (2.5 mM) for 48 h and then used for electron microscopy. Arrows indicate sequestration of cytoplasm and organelles in pre-autophagosomes and autophagosome, and the asterisk indicates condensed chromatin. N, nucleus.
(§3) RT-PCR. Total RNA was isolated using TRIZOL™ (Invitrogen). 2 μg of RNA was reverse transcribed using the GeneAmp PCR System (Applied Biosystems, Branchburg, N.J.). PCR reaction was performed under optimal conditions specific for each of the primer pairs. GAPDH (glyceraldehyde-3-phosphate dehydrogenase) or HPRT1 (hypoxanthine/guanine phosphoribosyl transferase-1) were used as internal controls. PCR products were size-fractionated on agarose gel, stained with ethidium bromide and imaged using Alpha Imager (Santa Clara, Calif.). […]

MCF10A cells [3] = test: as above; settings: SLC6A14-negative MCF10A, α-MT 2.5 mM, 24, 48 or 72 h
Description: as §2, §3

## CC(N)(Cc1c[nH]c2ccccc12)C(=O)O (racemic) [α-MT, α-methyl-DL-tryptophan]
MCF10A cells [1]
  autophagy (LC3 localization): did not undergo autophagy
mTOR in MCF7 cells
  mTOR inhibition: phosphorylation of S6 and S6 kinase: decreased phosphorylation
[2]
  mTOR activity: not affected
ZR75.1 cells
  invasion in α-MT-treated cells: 95±14 % of control
MB231 cells
  levels of asparagine synthetase mRNA and CHOP mRNA: not
MCF10A cells [3]
  levels of asparagine synthetase mRNA and CHOP mRNA: not
